Reference: ChEMBL document CHEMBL4052601, “Glycybridins A-K, Bioactive Phenolic Compounds from Glycyrrhiza glabra” (J Nat Prod, 2017)

Tests used:
[1] = tested on: HepG2; assay: Antiproliferative activity against human HepG2 cells after 24 hrs by MTS assay; format: functional, cell-based; conditions: HepG2, 24 h
[2] = tested on: A549; assay: Induction of apoptosis in human A549 cells assessed as late apoptotic cells at 10 uM after 8 hrs by Annexin V-FITC/propidium iodide staining-based flow cytometric analysis (reference value: 12.02%); format: functional
[3] = tested on: A549; assay: Induction of apoptosis in human A549 cells assessed as early apoptotic cells at 10 uM after 8 hrs by Annexin V-FITC/propidium iodide staining-based flow cytometric analysis (reference value: 1.64%); format: functional
[4] = tested on: A549; assay: Antitumor activity against human A549 cells xenografted in BALB/c nude mouse assessed as reduction in tumor mass at 10 mg/kg, ip administered as daily dose for 16 days relative to control; format: functional; conditions: 384 h
[5] = tested on: A549; assay: Induction of apoptosis in human A549 cells assessed as late apoptotic cells at 20 uM after 8 hrs by Annexin V-FITC/propidium iodide staining-based flow cytometric analysis (reference value: 12.02%); format: functional
[6] = tested on: MCF7; assay: Antiproliferative activity against human MCF7 cells after 24 hrs by MTS assay; format: functional, cell-based; conditions: MCF7, 24 h
[7] = tested on: A549; assay: Induction of apoptosis in human A549 cells assessed as early apoptotic cells at 5 uM after 8 hrs by Annexin V-FITC/propidium iodide staining-based flow cytometric analysis (reference value: 1.64%); format: functional
[8] = tested on: A549; assay: Antiproliferative activity against human A549 cells at 10 uM after 24 hrs by MTS assay relative to control; format: functional; conditions: A549, 24 h
[9] = tested on: MCF7; assay: Antiproliferative activity against human MCF7 cells at 10 uM after 24 hrs by MTS assay relative to control; format: functional; conditions: MCF7, 24 h
[10] = tested on: A549; assay: Induction of apoptosis in human A549 cells after 8 hrs by Annexin V-FITC/propidium iodide staining-based flow cytometric analysis; format: functional, cell-based
[11] = tested on: A549; assay: Antitumor activity against human A549 cells xenografted in BALB/c nude mouse assessed as reduction in tumor volume at 10 mg/kg, ip administered as daily dose for 16 days relative to control; format: functional; conditions: 384 h
[12] = tested on: A549; assay: Induction of apoptosis in human A549 cells assessed as late apoptotic cells at 2.5 uM after 8 hrs by Annexin V-FITC/propidium iodide staining-based flow cytometric analysis (reference value: 12.02%); format: functional
[13] = tested on: A549; assay: Induction of apoptosis in human A549 cells assessed as early apoptotic cells at 20 uM after 8 hrs by Annexin V-FITC/propidium iodide staining-based flow cytometric analysis (reference value: 1.64%); format: functional
[14] = tested on: A549; assay: Induction of apoptosis in human A549 cells assessed as early apoptotic cells at 2.5 uM after 8 hrs by Annexin V-FITC/propidium iodide staining-based flow cytometric analysis (reference value: 1.64%); format: functional
[15] = molecular target: T1, Tyrosine-protein phosphatase non-receptor type 1 (Homo sapiens) (UniProt P18031); conditions: at 10 µM;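 note: recombinant enzyme assay with pNPP substrate, inhibition read after 30 min versus untreated control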
T1 sequence (whole entry): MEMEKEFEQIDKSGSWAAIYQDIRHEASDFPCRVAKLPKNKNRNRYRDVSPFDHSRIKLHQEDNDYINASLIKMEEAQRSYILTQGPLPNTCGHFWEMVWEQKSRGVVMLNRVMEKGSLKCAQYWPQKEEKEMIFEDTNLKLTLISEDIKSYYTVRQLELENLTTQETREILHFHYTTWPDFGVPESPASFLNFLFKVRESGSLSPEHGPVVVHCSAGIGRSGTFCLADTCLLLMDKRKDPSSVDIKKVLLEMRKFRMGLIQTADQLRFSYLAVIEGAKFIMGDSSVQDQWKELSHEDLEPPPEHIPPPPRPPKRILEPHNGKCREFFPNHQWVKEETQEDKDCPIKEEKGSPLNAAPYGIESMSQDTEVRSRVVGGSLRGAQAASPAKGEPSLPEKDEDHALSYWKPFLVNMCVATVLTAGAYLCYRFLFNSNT
Description: Inhibition of recombinant human PTP1B using pNPP as substrate at 10 uM after 30 mins relative to control

[16] = tested on: Homo sapiens; assay: Inhibition of LPS-induced NF-kappaB (unknown origin) transactivation expressed in human SW480 cells at 10 uM administered 1 hr after LPS stimulation measured after 6 hrs by luciferase reporter gene assay relative to control; format: cell-based
[17] = molecular target: T2, Tyrosinase (Homo sapiens) (UniProt P14679); conditions: at 10 µM;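 note: tyrosinase of unspecified origin acting on L-tyrosine, compound preincubated with enzyme for 15 min before adding substrate, inhibition expressed versus control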
T2 sequence (whole entry): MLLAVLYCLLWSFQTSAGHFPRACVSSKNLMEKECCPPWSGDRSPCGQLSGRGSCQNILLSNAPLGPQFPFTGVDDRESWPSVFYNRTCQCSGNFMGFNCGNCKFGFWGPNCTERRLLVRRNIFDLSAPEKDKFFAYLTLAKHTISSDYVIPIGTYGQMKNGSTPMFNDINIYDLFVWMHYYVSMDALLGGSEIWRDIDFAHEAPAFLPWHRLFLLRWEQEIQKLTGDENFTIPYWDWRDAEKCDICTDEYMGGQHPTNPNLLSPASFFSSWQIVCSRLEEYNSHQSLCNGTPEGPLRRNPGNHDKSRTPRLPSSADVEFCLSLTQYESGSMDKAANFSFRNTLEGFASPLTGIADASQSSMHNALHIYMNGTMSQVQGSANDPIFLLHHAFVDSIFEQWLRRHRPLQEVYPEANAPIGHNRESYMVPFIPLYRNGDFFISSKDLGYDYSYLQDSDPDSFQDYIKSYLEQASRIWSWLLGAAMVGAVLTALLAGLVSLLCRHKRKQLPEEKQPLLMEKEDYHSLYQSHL
Description: Inhibition of tyrosinase (unknown origin) using L-tyrosine as substrate at 10 uM preincubated for 15 mins followed by substrate addition relative to control

[18] = tested on: A549; assay: Induction of apoptosis in human A549 cells assessed as late apoptotic cells at 5 uM after 8 hrs by Annexin V-FITC/propidium iodide staining-based flow cytometric analysis (reference value: 12.02%); format: functional
[19] = tested on: RAW264.7; assay: Antiinflammatory activity against mouse RAW264.7 cells assessed as inhibition of LPS-induced nitric oxide production at 10 uM after 24 hrs by Griess assay relative to control; format: functional; conditions: RAW264.7, 24 h
[20] = tested on: Mus musculus; assay: Toxicity in BALB/c nude mouse xenografted with human A549 cells at 10 mg/kg, ip administered as daily dose for 16 days relative to control; format: organism-based; conditions: in vivo, 384 h
[21] = tested on: Mus musculus; assay: Toxicity in BALB/c nude mouse xenografted with human A549 cells assessed as change in body weight at 10 mg/kg, ip administered as daily dose for 16 days relative to control; format: organism-based; conditions: in vivo, 384 h
[22] = tested on: SW480; assay: Antiproliferative activity against human SW480 cells at 10 uM after 24 hrs by MTS assay relative to control; format: functional; conditions: SW480, 24 h
[23] = tested on: A549; assay: Antiproliferative activity against human A549 cells after 24 hrs by MTS assay; format: functional, cell-based
[24] = tested on: SW480; assay: Antiproliferative activity against human SW480 cells after 24 hrs by MTS assay; format: functional, cell-based; conditions: SW480, 24 h
[25] = tested on: HepG2; assay: Antiproliferative activity against human HepG2 cells at 10 uM after 24 hrs by MTS assay relative to control; format: functional; conditions: HepG2, 24 h

CC(C)=CCc1cc2c(cc1O)OCC(c1ccc(O)c3c1OC(C)(C)C=C3)=C2
IC50 [1]: 4.6 to 6.6 µM
Activity [2]: 32.67%
Activity [3]: 16.04%
inhibition in vivo at 10 mg/kg [4]: 39.7%
Activity [5]: 72.21%
IC50 [6]: 4.6 to 6.6 µM
Activity [7]: 2.42%
inhibition at 10 µM [8]: 87.7%
inhibition at 10 µM [9]: 90.7%
Activity [10]: Dose-dependent effect
inhibition in vivo at 10 mg/kg [11]: 38.9%
Activity [12]: 14.08%
Activity [13]: 22.81%
Activity [14]: 3.03%
inhibition [15]: 80.4%
inhibition [16]: 41.6%
inhibition [17]: 3.8%
Activity [18]: 17.07%
inhibition at 10 µM [19]: 36%
Activity [20]: Non-Toxic
Activity [21]: Non-Toxic
inhibition at 10 µM [22]: 94.6%
Activity [23]: Dose-dependent effect
IC50 ([23]; A549, 24 h): 4.6 µM
IC50 [24]: 4.6 to 6.6 µM
inhibition at 10 µM [25]: 93.6%
